Results taken from the supplement of paper PMC8671470.
± gives the standard deviation of the averaged measurements.

Tested on: HL-60
Assay: cell viability (% survival relative to DMSO control); higher = less cytotoxic
Conditions: 72 h
How it was run: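 In 384-well plates, the full library was rescreened in duplicate on HL-60 cells in RPMI 1640 with 10% FBS, at 1–10,000 nM in five tenfold concentrations, for 72 h at 37 °C, 5% CO2. Each run also held DMSO or 100 nM of one of three metabolic inhibitors. Viability was measured by CellTiter-Glo and normalised to DMSO wells and to wells with proteasome inhibitor, present at 10 μM. Any area under the curve comes from four-parameter log-logistic fitting with drc and PharmacoGx.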

[1] = 0.001 µM, co-treatment: AZD3965 100 nM
[2] = 0.001 µM, co-treatment: DMSO vehicle
[3] = 0.001 µM, co-treatment: GSK2194069 100 nM
[4] = 0.001 µM, co-treatment: pictilisib 100 nM
[5] = 0.01 µM, co-treatment: AZD3965 100 nM
[6] = 0.01 µM, co-treatment: DMSO vehicle
[7] = 0.01 µM, co-treatment: GSK2194069 100 nM
[8] = 0.01 µM, co-treatment: pictilisib 100 nM
[9] = 0.1 µM, co-treatment: AZD3965 100 nM
[10] = 0.1 µM, co-treatment: DMSO vehicle
[11] = 0.1 µM, co-treatment: GSK2194069 100 nM
[12] = 0.1 µM, co-treatment: pictilisib 100 nM
[13] = 1 µM, co-treatment: AZD3965 100 nM
[14] = 1 µM, co-treatment: DMSO vehicle
[15] = 1 µM, co-treatment: GSK2194069 100 nM
[16] = 1 µM, co-treatment: pictilisib 100 nM
[17] = 10 µM, co-treatment: AZD3965 100 nM
[18] = 10 µM, co-treatment: DMSO vehicle
[19] = 10 µM, co-treatment: GSK2194069 100 nM
[20] = 10 µM, co-treatment: pictilisib 100 nM

| Compound | cell viability [1] [%] | cell viability [2] [%] | cell viability [3] [%] | cell viability [4] [%] | cell viability [5] [%] | cell viability [6] [%] | cell viability [7] [%] | cell viability [8] [%] | cell viability [9] [%] | cell viability [10] [%] | cell viability [11] [%] | cell viability [12] [%] | cell viability [13] [%] | cell viability [14] [%] | cell viability [15] [%] | cell viability [16] [%] | cell viability [17] [%] | cell viability [18] [%] | cell viability [19] [%] | cell viability [20] [%] |
| --- | --- | --- | --- | --- | --- | --- | --- | --- | --- | --- | --- | --- | --- | --- | --- | --- | --- | --- | --- | --- |
| COc1c(C)c2c(c(O)c1C/C=C(\C)CCC(=O)O)C(=O)OC2 [Mycophenolic acid] | 96.8 ± 3.9 | 72.1 ± 34 | 85.6 ± 16 | 91.1 ± 12 | 89.8 ± 13 | 96.4 ± 5.6 | 86.3 ± 18 | 92.87 ± 0.34 | 99 ± 6.1 | 95.9 ± 2.7 | 94.33 ± 0.34 | 99.1 ± 7.1 | 113.3 ± 0.98 | 106.1 ± 0.96 | 103 ± 7.8 | 98.72 ± 0.17 | 31.9 ± 4.8 | 56.2 ± 3.4 | 55.8 ± 1.6 | 55.7 ± 1.7 |
| CN(C)c1nc(O)c2[nH]cnc2n1 [2-Dimethylamino-6-hydroxypurine] | 98.9 ± 2.2 | 99.5 ± 1.3 | 98.8 ± 1.3 | 101 ± 8 | 97.93 ± 0.42 | 103 ± 8.9 | 110 ± 20 | 105 ± 3 | 100 ± 2.5 | 96.5 ± 1.1 | 92.4 ± 1.2 | 102.5 ± 0.56 | 97.6 ± 3 | 88.1 ± 12 | 104 ± 12 | 114 ± 16 | 101.2 ± 0.26 | 102 ± 4.7 | 108 ± 16 | 99 ± 9.8 |
| O=C1Nc2ccccc2/C1=C\NCCc1ccc(O)c(O)c1 [AC1NZZMF] | 95.6 ± 7.7 | 103 ± 1.8 | 99.4 ± 2.7 | 102 ± 6.3 | 90.2 ± 23 | 100.1 ± 0.38 | 98.5 ± 11 | 110 ± 4.9 | 102 ± 4 | 102 ± 1.2 | 100 ± 1.1 | 97.2 ± 13 | 105 ± 8.5 | 102.2 ± 0.11 | 99 ± 0.43 | 103 ± 13 | 87.9 ± 9.7 | 100.97 ± 0.1 | 95.4 ± 1.8 | 74.1 ± 3.9 |
| CCCc1nn(C)c2c(O)nc(-c3cc(S(=O)(=O)N4CCN(C)CC4)ccc3OCC)nc12 [Sildenafil] | 104 ± 6.6 | 88.1 ± 13 | 91.3 ± 6.8 | 79.6 ± 40 | 99.2 ± 1.4 | 98.4 ± 4.1 | 96.77 ± 0.75 | 102 ± 7.1 | 104.5 ± 0.69 | 106 ± 5.1 | 123 ± 12 | 117 ± 10 | 99.4 ± 4.6 | 103 ± 2.1 | 97.06 ± 0.92 | 93.6 ± 18 | 99.89 ± 0.83 | 102 ± 2.9 | 93 ± 1.7 | 94.7 ± 7.5 |
| CCOc1ccc(Cc2cc([C@@H]3O[C@H](CO)[C@@H](O)[C@H](O)[C@H]3O)ccc2Cl)cc1 [Dapagliflozin] | 100.2 ± 0.34 | 105 ± 2.9 | 100.95 ± 0.06 | 99.1 ± 5.3 | 97.7 ± 4.2 | 101.3 ± 0.77 | 102 ± 1.1 | 103 ± 1.6 | 99.5 ± 0.33 | 100 ± 3.5 | 100 ± 4.8 | 101.6 ± 0.16 | 103.3 ± 0.55 | 99.6 ± 1.8 | 96 ± 1.6 | 104 ± 5.3 | 104 ± 2 | 103 ± 3.6 | 102 ± 4.6 | 100 ± 6.2 |
